Results from US20190241569A1, “3-(ARYL OR HETEROARYL) METHYLENEINDOLIN-2-ONE DERIVATIVES AS INHIBITORS OF CANCER STEM CELL PATHWAY KINASES FOR THE TREATMENT OF CANCER” (Boston Biomedical, Inc., priority 2013, published 2019).

test system: FaDu; assay: Bulk cancer cells, Cell Titer-Glo 72 hours (Test Example 2); format: cell-based; details: Homo sapiens
Description: Tubes of 3× drug (60 uM in 500 uL complete media) were prepared from 5 mM stock solutions in DMSO. […] To treat cells, 50 uL of drug from the dilution plate was removed and added to the cell plates. […] Cells were harvested 72 hours after drug addition using Cell Titer-Glo (Promega) and luminescence measured on a plate reader.

Row | SMILES | IC50
1 | Cc1ccc(-c2nc(-c3ccc4c(c3)/C(=C/c3[nH]c(C)c(C(=O)N5CCOCC5)c3C)C(=O)N4)cs2)cc1 [Example 105] | 3.05 µM
2 | CCN(CC)CCNC(=O)c1c(C)[nH]c(/C=C2\C(=O)Nc3ccc(C4CCN(C5CCOCC5)CC4)cc32)c1C [Example 12] | 23.9 µM
3 | CCN(CC)CCNC(=O)c1c(C)[nH]c(/C=C2\C(=O)Nc3ccc(-c4cnc(-c5ccccc5)s4)cc32)c1C [Example 54] | 23.7 µM
4 | CCN(CC)CCNC(=O)c1c(C)[nH]c(/C=C2\C(=O)Nc3ccc(-c4csc(-c5ccccn5)n4)cc32)c1C [Example 124] | 46.9 µM
5 | Cc1[nH]c(/C=C2\C(=O)Nc3ncc(-c4csc(-c5ccccc5)n4)cc32)c(C)c1C(=O)N1CCN(C)CC1 [Example 117] | 39.2 µM

Now from value to compound:

Row | IC50 | SMILES
6 | 49.3 µM | O=C1Nc2ccc(-c3csc(-c4ccccc4)n3)cc2/C1=C/c1cc2ccccc2[nH]1 [Example 159]
7 | 17.5 µM | O=C1Nc2ccc(-c3csc(-c4ccncc4)n3)cc2/C1=C/c1ccc(N2CCOCC2)cc1 [Example 173]
8 | 33.2 µM | COc1cccnc1-c1ccc2c(c1)/C(=C/c1[nH]c(C)cc1C)C(=O)N2 [Example 222]
9 | 23.9 µM | CCN(CC)CCNC(=O)c1c(C)[nH]c(/C=C2\C(=O)Nc3cc(-c4ccc5cn[nH]c(=O)c5c4)ccc32)c1C [Example 252]
10 | 14 µM | Cc1cc(C)c(/C=C2\C(=O)Nc3cc(-c4ccc5ccccc5n4)ccc32)[nH]1 [Example 248]
11 | 35.5 µM | O=C1Nc2ccc(-c3csc(-c4ccccc4)n3)cc2/C1=C/c1ccc(N2CCOCC2)cc1 [Example 172]

test system: FaDu CSC; assay: Cancer stem cells, Cell Titer-Glo 72 hours (Test Example 3); format: cell-based; details: Homo sapiens, FaDu, 72 h

Row | SMILES | IC50
12 | CCN(CC)CCNC(=O)c1c(C)[nH]c(/C=C2\C(=O)Nc3ncc(-c4csc(-c5ccccc5)n4)cc32)c1C [Example 116] | 1.6 µM
13 | Cc1[nH]c(/C=C2\C(=O)Nc3ccc(-c4csc(C5CCNCC5)n4)cc32)c(C)c1C(=O)O [Example 142] | 5.62 µM
14 | Cc1[nH]c(/C=C2\C(=O)Nc3ccc(-c4cnn(-c5ccccn5)c4)cc32)c(C)c1C(=O)N1CCOCC1 [Example 30] | 8.94 µM
15 | Cc1[nH]c(/C=C2\C(=O)Nc3ccc(-c4ccnn4-c4ccc(C#N)cc4)cc32)c(C)c1C(=O)N1CCN(C)CC1 [Example 24] | 48.2 µM
16 | CCOC(=O)CCc1cccc(-c2nc(-c3ccc4c(c3)/C(=C/c3[nH]c(C)c(C(=O)NCCN(CC)CC)c3C)C(=O)N4)cs2)c1 [Example 134] | 2.34 µM
17 | Cc1[nH]c(/C=C2\C(=O)Nc3ccc(-c4cnn(-c5ccccc5)c4C)cc32)c(C)c1C(=O)N1CCN(C)CC1 [Example 5] | 14.8 µM
18 | CCN(CC)CCNC(=O)c1c(C)[nH]c(/C=C2\C(=O)Nc3ccc(-c4oc(-c5ccccc5)nc4C)cc32)c1C [Example 34] | 18.2 µM
19 | Cc1[nH]c(/C=C2\C(=O)Nc3ccc(-c4ncc(-c5ccccc5)o4)cc32)c(C)c1C(=O)N1CCN(C)CC1 [Example 20] | 2.38 µM
20 | O=C1Nc2ccc(-c3csc(-c4ccccc4)n3)cc2/C1=C/c1ccc(C(=O)NCCN2CCOCC2)c(=O)[nH]1 [Example 123] | 33.7 µM
21 | CN1CCN(C(=O)c2ccc(/C=C3\C(=O)Nc4ccc(-c5csc(-c6ccccc6)n5)cc43)[nH]c2=O)CC1 [Example 122] | 23.2 µM
22 | CCOC(=O)CCc1ccc(-c2nc(-c3ccc4c(c3)/C(=C/c3[nH]c(C)c(C(=O)NCCN(CC)CC)c3C)C(=O)N4)cs2)cc1 [Example 136] | 2.52 µM
23 | CCOC(=O)c1c(C)[nH]c(/C=C2\C(=O)Nc3ccc(-c4csc(-c5ccccc5)n4)cc32)c1C [Example 108] | 20.2 µM

Further lines, results first:

Row | IC50 | SMILES
24 | 3.07 µM | O=C1Nc2ccc(-c3csc(-c4ccncc4)n3)cc2/C1=C/c1cc2ccccc2[nH]1 [Example 158]
25 | 39.1 µM | Cc1cc(C)c(/C=C2\C(=O)Nc3cc(-c4cccc(C#N)c4C)ccc32)[nH]1 [Example 245]
26 | 18.2 µM | Cc1cc(C)c(/C=C2\C(=O)Nc3cc(-c4ccc(-c5ccccc5)nc4)ccc32)[nH]1 [Example 241]
27 | 14.9 µM | Cc1cc(C)c(/C=C2\C(=O)Nc3cc(-c4cnc5ccnn5c4)ccc32)[nH]1 [Example 243]
